Results from patent US20040043483A1, “Novel tolerogenic dendritic cells and therapeutic uses therefor” (priority 2002, published 2004).

Test system: C3H spleen T cells
Test: One-way mixed leukocyte reaction (MLR), allostimulatory capacity by [3H]TdR uptake
Format: cell-based, mouse
Settings: zVAD-fmk 100 μM added at the beginning of 3-day MLR
Method: Mixed leukocyte reaction (MLR). To determine the allostimulatory capacity of DCs, one-way MLR were performed with γ-irradiated (20 Gy) DCs or spleen cells from B10 (allogeneic) or C3H (syngeneic) mice as stimulators and nylon wool-purified C3H spleen T cells (2×105) as responders. Cultures (200 μl) were established in triplicate in 96-well round-bottom microculture plates and maintained in complete medium in 5% CO2 in air at 37° C. for 3-4 days. [^3H]TdR (1 μCi/well) was added for the final 18 h of culture, and incorporation of [^3H]TdR into DNA was assessed by liquid scintillation counting in an automated counter. Results are expressed as mean cpm±1 SD. In apoptosis inhibition experiments, a common caspase inhibitor peptide, benzyloxycarbonyl-Val Ala-Asp-fluoromethyl ketone (zVAD-fmk; Alexis, San Diego, Calif.), was added (100 μM) at the beginning of the MLR culture. DMSO served as a control.
Allostimulatory capacity of liver-derived DEC205^+B220^+CD19^−cells. The allostimulatory capacity of DEC205^+, B220^+, CD19^−cells derived from B 10 liver NPCs was determined in a one-way MLR, performed as described above. […] Despite the high expression of MHC and costimulatory molecules, liver-derived DEC205^+B220^+CD19^−cells display low allostimulatory capacity.

Substance: benzyloxycarbonyl-Val Ala-Asp-fluoromethyl ketone [zVAD-fmk]
- T cell proliferation induced by liver-derived DEC205+B220+CD19− cells after caspase inhibition: restored T cell proliferation
